Data taken from US20230057861A1, “USE OF CORYDALIS SAXICOLA BUNTING AND FORMULATION THEREOF IN PREPARATION OF DRUG FOR TREATING NON-ALCOHOLIC FATTY LIVER DISEASES” (NANJING ZHONGSHAN PHARMACEUTICAL CO., LTD., priority 2020, published 2023).

Test system: HFD-fed mice
Experiment: Liver histopathology, HE staining
Assay type: in vivo, C57BL/6J mice
Conditions: metformin group (200 mg/kg), gavage 5 weeks, FIG. 5
Description: 1.4 Experimental method: After adaptive feeding for one week, 35 four-week-old male C57BL/6 mice were randomized into 2 initial groups, fed with a normal chow or a high-fat (60% fat) high-sugar (20% fructose) chow. […] During modeling, the mice were given ad libitum access to food and water at room temperature of 23-25° C. in an animal laboratory. The proper temperature and the 12-hour day-night cycle were maintained. From week 11, the mice in each group were dosed by gavage for 5 weeks, and its weight was measured once a week. 4.1.1 Experimental method: Fresh liver tissue was collected and fixed in 4% neutral formalin buffer for 24 h, and then dehydrated. The tissue blocks were trimmed, processed, and embedded in paraffin. The tissue in glass slides were cut to the thickness of 5 μm and treated with HE staining.

`CN(C)C(=N)N=C(N)N` [metformin] was tested, and the “hepatocyte swelling, steatosis, sparse cytoplasm (HE staining)” value was “significantly relieved”.
